Assay results reported in patent publication US20220089575A1, “FARNESOID X RECEPTOR AGONISTS AND USES THEREOF” (Metacrine, Inc., priority 2017, published 2022).

The compounds below were run against T1, hFXR (Homo sapiens, UniProt Q96RI1) (assay: In Vitro FXR Assay (TK): TK-ECRE-luc reporter in transfected CV-1 cells). Details: 18 hrs, luminescence, maximum efficacy of <25% of the Fexarmine control classified as '+'.
T1 construct: expressed in transfected cells; host or cells: CV-1 cells
T1 sequence (Q96RI1 1-486): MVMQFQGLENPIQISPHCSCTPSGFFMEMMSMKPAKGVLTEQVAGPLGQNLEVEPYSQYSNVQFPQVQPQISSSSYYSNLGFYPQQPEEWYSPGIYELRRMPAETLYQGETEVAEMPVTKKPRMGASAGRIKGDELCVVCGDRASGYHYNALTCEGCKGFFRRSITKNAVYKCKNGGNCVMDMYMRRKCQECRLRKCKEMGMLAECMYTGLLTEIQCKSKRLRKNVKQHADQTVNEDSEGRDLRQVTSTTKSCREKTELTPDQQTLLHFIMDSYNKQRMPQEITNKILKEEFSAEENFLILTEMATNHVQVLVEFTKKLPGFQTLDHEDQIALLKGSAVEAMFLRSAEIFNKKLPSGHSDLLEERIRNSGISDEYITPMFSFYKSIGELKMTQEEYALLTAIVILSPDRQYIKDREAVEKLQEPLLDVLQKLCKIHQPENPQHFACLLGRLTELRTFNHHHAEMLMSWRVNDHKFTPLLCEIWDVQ
T1 sequence (P19793 1-462 partner): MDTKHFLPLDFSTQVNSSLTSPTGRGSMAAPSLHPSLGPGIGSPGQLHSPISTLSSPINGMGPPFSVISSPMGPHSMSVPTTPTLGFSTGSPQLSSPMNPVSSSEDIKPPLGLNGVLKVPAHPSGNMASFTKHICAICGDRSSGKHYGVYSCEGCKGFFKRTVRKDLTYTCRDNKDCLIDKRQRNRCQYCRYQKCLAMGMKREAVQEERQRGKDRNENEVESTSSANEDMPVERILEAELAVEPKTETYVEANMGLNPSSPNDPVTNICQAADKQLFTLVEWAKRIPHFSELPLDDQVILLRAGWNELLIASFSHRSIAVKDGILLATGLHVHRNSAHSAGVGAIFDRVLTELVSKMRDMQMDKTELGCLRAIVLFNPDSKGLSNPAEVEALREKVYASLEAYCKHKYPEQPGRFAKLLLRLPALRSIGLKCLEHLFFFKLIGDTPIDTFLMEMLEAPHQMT
Assay type: cell-based
Procedure, shortened: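 CV-1 cells transiently co-transfected with hFXR, hRXR, TK-ECRE-luc and pCMX-YFP plasmids in charcoal-stripped serum medium. Serially diluted compounds added, cells incubated 18 h at 37° C, then lysed and luminescence read.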

EC50, ≤ 250 nM:
COc1ccc([C@H]2CC[C@H](CN(c3cc(-c4coc(C5CC5)n4)ccn3)C(=O)[C@H]3CC[C@H](OC(=O)N[C@@H]4CCCN(C)C4)CC3)CC2)nc1C [Compound 6.80, trans-4-((4-(2-Cyclopropyloxazol-4-yl)pyridin-2-yl)((trans-4-(5-methoxy-6-methylpyridin-2-yl)cyclohexyl)methyl)carbamoyl)cyclohexyl ((R)-1-methylpiperidin-3-yl)carbamate]
CCN1CCN(C(=O)O[C@H]2CC[C@H](C(=O)N(C[C@H]3CC[C@H](c4ccc(OC)c(C)n4)CC3)c3cc(-c4coc(C5CC5)n4)ccn3)CC2)CC1 [Compound 6.81, trans-4-((4-(2-Cyclopropyloxazol-4-yl)pyridine-2-yl)((trans-4-(5-methoxy-6-methylpyridin-2-yl)cyclohexyl)methyl)carbamoyl)cyclohexyl 4-ethylpiperazine-1-carboxylate]
COc1ccc([C@H]2CC[C@H](CN(c3cc(-c4coc(C5CC5)n4)ccn3)C(=O)[C@H]3CC[C@H](OC(=O)N4CCN(C(C)C)CC4)CC3)CC2)nc1C [Compound 6.82, trans-4-((4-(2-Cyclopropyloxazol-4-yl)pyridine-2-yl)((trans-4-(5-methoxy-6-methylpyridin-2-yl)cyclohexyl)methyl)carbamoyl)cyclohexyl 4-isopropylpiperazine-1-carboxylate]
COc1ccc([C@H]2CC[C@H](CN(c3cc(-c4coc(C5CC5)n4)ccn3)C(=O)[C@H]3CC[C@H](OC(=O)N4CCOC(C)(C)C4)CC3)CC2)nc1C [Compound 6.83, trans-4-((4-(2-Cyclopropyloxazol-4-yl)pyridin-2-yl)((trans-4-(5-methoxy-6-methylpyridin-2-yl)cyclohexyl)methyl)carbamoyl)cyclohexyl 2,2-dimethylmorpholine-4-carboxylate]
COc1ccc([C@H]2CC[C@H](CN(c3cc(-c4coc(C5CC5)n4)ccn3)C(=O)[C@H]3CC[C@H](OC(=O)N4CC(C5COC5)C4)CC3)CC2)nc1C [Compound 6.84, trans-4-((4-(2-Cyclopropyloxazol-4-yl)pyridin-2-yl)((trans-4-(5-methoxy-6-methylpyridin-2-yl)cyclohexyl)methyl)carbamoyl)cyclohexyl 3-(oxetan-3-yl) azetidine-1-carboxylate]
CCc1nc(-c2ccnc(N(C[C@H]3CC[C@H](c4ccc(OC)c(C)n4)CC3)C(=O)[C@H]3CC[C@H](OC(=O)NCCO)CC3)c2)co1 [Compound 6.85, trans-4-((4-(2-Ethyloxazol-4-yl)pyridin-2-yl)((trans-4-(5-methoxy-6-methylpyridin-2-yl)cyclohexyl)methyl)carbamoyl)cyclohexyl (2-hydroxyethyl)carbamate]
COc1ccc([C@H]2CC[C@H](CN(c3cc(-c4coc(C5CC5)n4)ccn3)C(=O)[C@H]3CC[C@H](OC(=O)N(C)CC(C)(C)O)CC3)CC2)nc1C [Compound 6.86, trans-4-((4-(2-Cyclopropyloxazol-4-yl)pyridin-2-yl)((trans-4-(5-methoxy-6-methylpyridin-2-yl)cyclohexyl)methyl)carbamoyl)cyclohexyl (2-hydroxy-2-methylpropyl)(methyl)carbamate]
COc1ccc([C@H]2CC[C@H](CN(c3cc(-c4coc(C5CC5)n4)ccn3)C(=O)[C@H]3CC[C@H](OC(=O)N(C)CCO)CC3)CC2)nc1C [Compound 6.87, trans-4-((4-(2-Cyclopropyloxazol-4-yl)pyridin-2-yl)((trans-4-(5-methoxy-6-methylpyridin-2-yl)cyclohexyl)methyl)carbamoyl)cyclohexyl (2-hydroxyethyl)(methyl)carbamate]
CCC(O)C(C)NC(=O)O[C@H]1CC[C@H](C(=O)N(C[C@H]2CC[C@H](c3ccc(OC)c(C)n3)CC2)c2cc(-c3coc(C4CC4)n3)ccn2)CC1 (stereo partly drawn) [Compound 6.88, trans-4-((4-(2-Cyclopropyloxazol-4-yl)pyridin-2-yl)((trans-4-(5-methoxy-6-methylpyridin-2-yl)cyclohexyl)methyl)carbamoyl)cyclohexyl (3-hydroxypentan-2-yl)carbamate]
COc1ccc([C@H]2CC[C@H](CN(c3cc(-c4coc(C5CC5)n4)ccn3)C(=O)[C@H]3CC[C@H](OC(=O)NCC(O)C(C)C)CC3)CC2)nc1C (stereo partly drawn) [Compound 6.89, trans-4-((4-(2-Cyclopropyloxazol-4-yl)pyridin-2-yl)((trans-4-(5-methoxy-6-methylpyridin-2-yl)cyclohexyl)methyl)carbamoyl)cyclohexyl (2-hydroxy-3-methylbutyl)carbamate]
COc1ccc([C@H]2CC[C@H](CN(c3cc(-c4coc(C5CC5)n4)ccn3)C(=O)[C@H]3CC[C@H](OC(=O)NC(C)(C)CO)CC3)CC2)nc1C [Compound 6.90, trans-4-((4-(2-Cyclopropyloxazol-4-yl)pyridin-2-yl)((trans-4-(5-methoxy-6-methylpyridin-2-yl)cyclohexyl)methyl)carbamoyl)cyclohexyl (1-hydroxy-2-methylpropan-2-yl)carbamate]
COc1ccc([C@H]2CC[C@H](CN(c3cc(-c4coc(C(C)C)n4)ccn3)C(=O)[C@H]3CC[C@H](OC(=O)NCC(C)(C)O)CC3)CC2)nc1C [Compound 6.91, trans-4-((4-(2-Isopropyloxazol-4-yl)pyridin-2-yl)((trans-4-(5-methoxy-6-methylpyridin-2-yl)cyclohexyl)methyl)carbamoyl)cyclohexyl (2-hydroxy-2-methylpropyl)carbamate]
COc1ccc([C@H]2CC[C@H](CN(c3cc(-c4cnn(C(C)C)c4)ccn3)C(=O)[C@H]3CC[C@H](OC(=O)NCC(C)(C)O)CC3)CC2)nc1C [Compound 6.92, trans-4-((4-(1-Isopropyl-1H-pyrazol-4-yl)pyridin-2-yl)((trans-4-(5-methoxy-6-methylpyridin-2-yl)cyclohexyl)methyl)carbamoyl)cyclohexyl (2-hydroxy-2-methylpropyl)carbamate]
COc1ccc([C@H]2CC[C@H](CN(c3cc(-c4coc(C5CC5)n4)ccn3)C(=O)[C@H]3CC[C@H](OC(=O)N[C@@H](C)CO)CC3)CC2)nc1C [Compound 6.93, trans-4-((4-(2-Cyclopropyloxazol-4-yl)pyridin-2-yl)((trans-4-(5-methoxy-6-methylpyridin-2-yl)cyclohexyl)methyl)carbamoyl)cyclohexyl ((S)-1-hydroxypropan-2-yl)carbamate]
COc1ccc([C@H]2CC[C@H](CN(c3cc(-c4coc(C5CC5)n4)ccn3)C(=O)[C@H]3CC[C@H](OC(=O)N[C@H](C)CO)CC3)CC2)nc1C [Compound 6.94, trans-4-((4-(2-Cyclopropyloxazol-4-yl)pyridin-2-yl)((trans-4-(5-methoxy-6-methylpyridin-2-yl)cyclohexyl)methyl)carbamoyl)cyclohexyl ((R)-1-hydroxypropan-2-yl)carbamate]
COc1ccc([C@H]2CC[C@H](CN(c3cc(-c4coc(C5CC5)n4)ccn3)C(=O)[C@H]3CC[C@H](OC(=O)NC[C@@H](C)O)CC3)CC2)nc1C [Compound 6.95, trans-4-((4-(2-Cyclopropyloxazol-4-yl)pyridin-2-yl)((trans-4-(5-methoxy-6-methylpyridin-2-yl)cyclohexyl)methyl)carbamoyl)cyclohexyl ((R)-2-hydroxypropyl)carbamate]
COc1ccc([C@H]2CC[C@H](CN(c3cc(-c4coc(C5CC5)n4)ccn3)C(=O)[C@H]3CC[C@H](OC(=O)NC[C@H](C)O)CC3)CC2)nc1C [Compound 6.96, trans-4-((4-(2-Cyclopropyloxazol-4-yl)pyridin-2-yl)((trans-4-(5-methoxy-6-methylpyridin-2-yl)cyclohexyl)methyl)carbamoyl)cyclohexyl ((S)-2-hydroxypropyl)carbamate]
COc1ccc([C@H]2CC[C@H](CN(c3cc(-c4coc(C5CC5)n4)ccn3)C(=O)[C@H]3CC[C@H](OC(=O)N4CC(O)C4)CC3)CC2)nc1C [Compound 7, trans-4-((4-(2-Cyclopropyloxazol-4-yl)pyridine-2-yl)((trans-4-(5-methoxy-6-methylpyridin-2-yl)cyclohexyl)methyl)carbamoyl)cyclohexyl 3-hydroxyazetidine-1-carboxylate]
